Values of other authors in patent publication US20100317522A1, “Adjuvants for Agrochemical Applications” (COGNIS IP […], priority 2007, published 2010).

Settings: rat, oral (WHO)

## O=C(O)CNCP(=O)(O)O [Glyphosate, N-(phosphonomethyl)glycine]
  LD50: 4320 mg/kg
